The NIST ThermoML archive (doi:10.1021/je2000827)
± gives the expanded uncertainty stated by the source.

Settings: Liquid; for vapor or sublimation pressure: Closed cell (Static) method

CCF [fluoroethane]
mass density (231.49 K): 822.41 ± 2.6 kg/m3 | vapor or sublimation pressure (231.49 K): 83.13 ± 2.4 kPa | mass density (234.21 K): 817.05 ± 2.6 kg/m3 | vapor or sublimation pressure (234.21 K): 94.43 ± 2.4 kPa | mass density (236.99 K): 812.28 ± 2.6 kg/m3 | vapor or sublimation pressure (236.99 K): 107.29 ± 2.4 kPa | mass density (239.38 K): 807.75 ± 2.5 kg/m3 | vapor or sublimation pressure (239.38 K): 119.32 ± 2.4 kPa | mass density (242.26 K): 802.85 ± 2.5 kg/m3 | vapor or sublimation pressure (242.26 K): 135.31 ± 2.4 kPa | mass density (244.45 K): 798.89 ± 2.5 kg/m3 | vapor or sublimation pressure (244.45 K): 148.5 ± 2.4 kPa | mass density (247.17 K): 794.45 ± 2.5 kg/m3 | vapor or sublimation pressure (247.17 K): 166.36 ± 2.4 kPa | mass density (249.55 K): 790.12 ± 2.5 kg/m3 | vapor or sublimation pressure (249.55 K): 183.2 ± 2.4 kPa | mass density (252.04 K): 784.97 ± 2.5 kg/m3 | vapor or sublimation pressure (252.04 K): 202.06 ± 2.4 kPa | mass density (254.66 K): 781.18 ± 2.5 kg/m3 | vapor or sublimation pressure (254.66 K): 223.94 ± 2.4 kPa | mass density (256.86 K): 777.42 ± 2.5 kg/m3 | vapor or sublimation pressure (256.86 K): 243.51 ± 2.4 kPa | mass density (259.79 K): 772.38 ± 2.5 kg/m3 | vapor or sublimation pressure (259.79 K): 271.62 ± 2.4 kPa | mass density (261.53 K): 769.17 ± 2.5 kg/m3 | vapor or sublimation pressure (261.53 K): 289.32 ± 2.4 kPa | mass density (264.92 K): 762.96 ± 2.5 kg/m3 | vapor or sublimation pressure (264.92 K): 326.52 ± 2.5 kPa | mass density (267.46 K): 758.21 ± 2.5 kg/m3 | vapor or sublimation pressure (267.46 K): 356.63 ± 2.5 kPa | mass density (270.02 K): 753.26 ± 2.5 kg/m3 | vapor or sublimation pressure (270.02 K): 389.01 ± 2.5 kPa | mass density (272.57 K): 748.47 ± 2.4 kg/m3 | vapor or sublimation pressure (272.57 K): 423.54 ± 2.5 kPa | mass density (275.14 K): 743.66 ± 2.4 kg/m3 | vapor or sublimation pressure (275.14 K): 460.69 ± 2.5 kPa | mass density (277.69 K): 738.45 ± 2.4 kg/m3 | vapor or sublimation pressure (277.69 K): 499.68 ± 2.5 kPa | mass density (280.25 K): 734.48 ± 2.4 kg/m3 | vapor or sublimation pressure (280.25 K): 542.23 ± 2.5 kPa | mass density (282.93 K): 728.08 ± 2.4 kg/m3 | vapor or sublimation pressure (282.93 K): 587.98 ± 2.6 kPa | mass density (285.36 K): 724.27 ± 2.4 kg/m3 | vapor or sublimation pressure (285.36 K): 633.63 ± 2.6 kPa | mass density (288.87 K): 715.99 ± 2.4 kg/m3 | vapor or sublimation pressure (288.87 K): 701.87 ± 2.6 kPa | mass density (290.5 K): 713.52 ± 2.4 kg/m3 | vapor or sublimation pressure (290.5 K): 736.6 ± 2.7 kPa | mass density (293.49 K): 706.47 ± 2.4 kg/m3 | vapor or sublimation pressure (293.49 K): 801.35 ± 2.7 kPa | mass density (296.62 K): 699.98 ± 2.4 kg/m3 | vapor or sublimation pressure (296.62 K): 874.83 ± 2.8 kPa | mass density (298.35 K): 696.18 ± 2.4 kg/m3 | vapor or sublimation pressure (298.35 K): 917.13 ± 2.8 kPa | mass density (301.4 K): 689.76 ± 2.4 kg/m3 | vapor or sublimation pressure (301.4 K): 996.4 ± 2.8 kPa | mass density (303.42 K): 685.09 ± 2.4 kg/m3 | vapor or sublimation pressure (303.42 K): 1051 ± 2.9 kPa | mass density (305.56 K): 680.24 ± 2.4 kg/m3 | vapor or sublimation pressure (305.56 K): 1111.4 ± 2.9 kPa | mass density (308.36 K): 673.98 ± 2.3 kg/m3 | vapor or sublimation pressure (308.36 K): 1195.1 ± 3 kPa | mass density (311.02 K): 667.87 ± 2.3 kg/m3 | vapor or sublimation pressure (311.02 K): 1278.7 ± 3.1 kPa | mass density (313.56 K): 661.98 ± 2.3 kg/m3 | vapor or sublimation pressure (313.56 K): 1362.7 ± 3.2 kPa | mass density (316.06 K): 655.89 ± 2.3 kg/m3 | vapor or sublimation pressure (316.06 K): 1439.2 ± 3.2 kPa | mass density (318.06 K): 650.99 ± 2.3 kg/m3 | vapor or sublimation pressure (318.06 K): 1511.1 ± 3.3 kPa | mass density (320.34 K): 645.22 ± 2.3 kg/m3 | vapor or sublimation pressure (320.34 K): 1596.5 ± 3.4 kPa | mass density (322.83 K): 638.81 ± 2.3 kg/m3 | vapor or sublimation pressure (322.83 K): 1683.8 ± 3.5 kPa | mass density (325.41 K): 632.16 ± 2.3 kg/m3 | vapor or sublimation pressure (325.41 K): 1800.8 ± 3.7 kPa | mass density (328.04 K): 625.04 ± 2.3 kg/m3 | vapor or sublimation pressure (328.04 K): 1922.5 ± 3.8 kPa | mass density (330.58 K): 617.82 ± 2.3 kg/m3 | vapor or sublimation pressure (330.58 K): 2035.8 ± 3.9 kPa | mass density (332.88 K): 609.12 ± 2.3 kg/m3 | vapor or sublimation pressure (332.88 K): 2105.8 ± 4 kPa | mass density (335.61 K): 599.54 ± 2.3 kg/m3 | vapor or sublimation pressure (335.61 K): 2262.5 ± 4.2 kPa | mass density (337.83 K): 591.63 ± 2.3 kg/m3 | vapor or sublimation pressure (337.83 K): 2369.9 ± 4.3 kPa | mass density (340.19 K): 583.39 ± 2.3 kg/m3 | vapor or sublimation pressure (340.19 K): 2489.5 ± 4.4 kPa | mass density (343.01 K): 573.25 ± 2.3 kg/m3 | vapor or sublimation pressure (343.01 K): 2639 ± 4.6 kPa

FC(F)Cl [chlorodifluoromethane]
mass density (237.03 K): 1396.88 ± 4.5 kg/m3 | vapor or sublimation pressure (237.03 K): 125.48 ± 2.4 kPa | mass density (242.05 K): 1380.58 ± 4.5 kg/m3 | vapor or sublimation pressure (242.05 K): 156.52 ± 2.4 kPa | mass density (248.23 K): 1361.7 ± 4.4 kg/m3 | vapor or sublimation pressure (248.23 K): 202.41 ± 2.4 kPa | mass density (250.79 K): 1352.02 ± 4.3 kg/m3 | vapor or sublimation pressure (250.79 K): 223.86 ± 2.4 kPa | mass density (257.12 K): 1333.18 ± 4.3 kg/m3 | vapor or sublimation pressure (257.12 K): 285.6 ± 2.5 kPa | mass density (262.27 K): 1317.65 ± 4.2 kg/m3 | vapor or sublimation pressure (262.27 K): 343.76 ± 2.5 kPa | mass density (267.03 K): 1302.17 ± 4.2 kg/m3 | vapor or sublimation pressure (267.03 K): 405.65 ± 2.5 kPa | mass density (272.37 K): 1283.62 ± 4.1 kg/m3 | vapor or sublimation pressure (272.37 K): 485.71 ± 2.6 kPa | mass density (276.67 K): 1268.86 ± 4 kg/m3 | vapor or sublimation pressure (276.67 K): 558.12 ± 2.6 kPa | mass density (283.21 K): 1244.97 ± 3.9 kg/m3 | vapor or sublimation pressure (283.21 K): 682.58 ± 2.7 kPa | mass density (287.52 K): 1231.04 ± 3.9 kg/m3 | vapor or sublimation pressure (287.52 K): 774.37 ± 2.8 kPa | mass density (294.06 K): 1206.17 ± 3.8 kg/m3 | vapor or sublimation pressure (294.06 K): 932.29 ± 2.9 kPa | mass density (298.34 K): 1188.92 ± 3.7 kg/m3 | vapor or sublimation pressure (298.34 K): 1047.7 ± 3.1 kPa | mass density (303.44 K): 1168.12 ± 3.6 kg/m3 | vapor or sublimation pressure (303.44 K): 1201.9 ± 3.2 kPa | mass density (306.98 K): 1156.73 ± 3.6 kg/m3 | vapor or sublimation pressure (306.98 K): 1316.4 ± 3.4 kPa
